Patent US20100261877A1, “PROCESS FOR ISOLATING THERAPEUTIC PEPTIDES” (priority 2009, published 2010)
Where a SMILES comes first, the peptide text is derived from it. Bridges are numbered along the chain shown (N, C = ends).

How the values were obtained:
[1] = target: T1, guanylate cyclase type C receptor (GCC) (Homo sapiens, UniProt P25092); conditions: in vitro, varying concentrations; cited from earlier work
T1 construct: endogenous in cells

[2] = Solubility of SEQ ID NO. 1 in aqueous ethanol solution; assay type: physicochemical
Description: The above general procedures were followed replacing isopropyl alcohol (IPA) with ethanol.
(§1) 1 that is able to be dissolved in the aqueous ethanol solution, depending on the v/v % ethanol:water. The very sharp increase in solubility between 50-70 ethanol was very unexpected and the discovery of this unexpected result allowed for the successful isolation of SEQ ID NO. 1 by precipitation which was necessary for a viable large manufacturing scale-up required for commercial production.

[3] = Solubility of SEQ ID NO. 1 in aqueous isopropanol solution; assay type: physicochemical
Description: as §1, with “in” for “in the”, “isopropanol” for “ethanol”, “isopropanol:water.” for “ethanol:water.”, “40-60% isopropanol” for “50-70 ethanol”

[4] = test system: small bowel motility, fluid secretion, visceral pain; conditions: oral, mice and rats; cited from earlier work

T1 sequence (P25092 24-1073): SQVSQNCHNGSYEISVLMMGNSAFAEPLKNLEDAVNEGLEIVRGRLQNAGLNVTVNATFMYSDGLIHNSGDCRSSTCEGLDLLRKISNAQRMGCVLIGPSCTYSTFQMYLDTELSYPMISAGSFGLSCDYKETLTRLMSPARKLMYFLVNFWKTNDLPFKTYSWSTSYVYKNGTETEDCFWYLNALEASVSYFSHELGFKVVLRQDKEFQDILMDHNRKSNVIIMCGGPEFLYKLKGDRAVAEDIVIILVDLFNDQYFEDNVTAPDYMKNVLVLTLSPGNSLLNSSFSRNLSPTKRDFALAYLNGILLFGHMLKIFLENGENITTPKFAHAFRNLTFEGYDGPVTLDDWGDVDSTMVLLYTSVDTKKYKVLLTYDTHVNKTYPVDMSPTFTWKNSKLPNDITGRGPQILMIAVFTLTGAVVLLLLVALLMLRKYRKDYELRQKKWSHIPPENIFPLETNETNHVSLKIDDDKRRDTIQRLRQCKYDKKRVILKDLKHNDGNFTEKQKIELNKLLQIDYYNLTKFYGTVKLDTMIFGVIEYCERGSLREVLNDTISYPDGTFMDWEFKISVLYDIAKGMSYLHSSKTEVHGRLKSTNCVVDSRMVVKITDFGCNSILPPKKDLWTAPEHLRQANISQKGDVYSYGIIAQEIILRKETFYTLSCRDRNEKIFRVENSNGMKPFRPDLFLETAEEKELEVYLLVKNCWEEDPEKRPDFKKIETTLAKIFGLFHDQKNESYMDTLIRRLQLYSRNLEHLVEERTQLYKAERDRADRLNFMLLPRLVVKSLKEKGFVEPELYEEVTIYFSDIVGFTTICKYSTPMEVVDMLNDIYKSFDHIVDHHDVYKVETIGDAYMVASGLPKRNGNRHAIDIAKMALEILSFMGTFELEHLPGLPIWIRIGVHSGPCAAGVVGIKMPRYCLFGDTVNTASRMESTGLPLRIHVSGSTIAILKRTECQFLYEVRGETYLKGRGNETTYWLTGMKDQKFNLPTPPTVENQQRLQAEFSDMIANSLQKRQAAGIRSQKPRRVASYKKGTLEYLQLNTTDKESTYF

C[C@@H]1NC(=O)[C@@H]2CCCN2C(=O)[C@H](CC(N)=O)NC(=O)[C@@H]2CSSC[C@H](N)C(=O)N[C@H]3CSSC[C@H](NC1=O)C(=O)N[C@@H]([C@@H](C)O)C(=O)NCC(=O)N[C@H](C(=O)N[C@@H](Cc1ccc(O)cc1)C(=O)O)CSSC[C@H](NC(=O)[C@H](Cc1ccc(O)cc1)NC(=O)[C@H](CCC(=O)O)NC3=O)C(=O)N2 [SEQ ID No. 1, Cys-Cys-Glu-Tyr-Cys-Cys-Asn-Pro-Ala-Cys-Thr-Gly-Cys-Tyr] (H-CCEYCCNPACTGCY-OH; disulfide 1-6, 2-10, 5-13)
cGMP in human intestinal cells [1]: increased cGMP
amount of SEQ ID NO. 1 able to be dissolved ([2]; EtOH 0 v/v % in water): 0.50 mg/mL
amount of SEQ ID NO. 1 able to be dissolved ([2]; EtOH 5 v/v % in water): 0.25 mg/mL
amount of SEQ ID NO. 1 able to be dissolved ([2]; EtOH 10 v/v % in water): 0.75 mg/mL
amount of SEQ ID NO. 1 able to be dissolved ([2]; EtOH 15 v/v % in water): 1.00 mg/mL
amount of SEQ ID NO. 1 able to be dissolved ([2]; EtOH 20 v/v % in water): 0.75 mg/mL
amount of SEQ ID NO. 1 able to be dissolved ([2]; EtOH 25 v/v % in water): 3.00 mg/mL
amount of SEQ ID NO. 1 able to be dissolved ([2]; EtOH 30 v/v % in water): 3.00 mg/mL
amount of SEQ ID NO. 1 able to be dissolved ([2]; EtOH 35 v/v % in water): 2.75 mg/mL
amount of SEQ ID NO. 1 able to be dissolved ([2]; EtOH 40 v/v % in water): 2.25 mg/mL
amount of SEQ ID NO. 1 able to be dissolved ([2]; EtOH 45 v/v % in water): 3.50 mg/mL
amount of SEQ ID NO. 1 able to be dissolved ([2]; EtOH 50 v/v % in water): 9.25 mg/mL
amount of SEQ ID NO. 1 able to be dissolved ([2]; EtOH 55 v/v % in water): 179.25 mg/mL
amount of SEQ ID NO. 1 able to be dissolved ([2]; EtOH 60 v/v % in water): 347.50 mg/mL
amount of SEQ ID NO. 1 able to be dissolved ([2]; EtOH 65 v/v % in water): 430.00 mg/mL
amount of SEQ ID NO. 1 able to be dissolved ([2]; EtOH 70 v/v % in water): 441.50 mg/mL
amount of SEQ ID NO. 1 able to be dissolved ([2]; EtOH 75 v/v % in water): 304.00 mg/mL
amount of SEQ ID NO. 1 able to be dissolved ([2]; EtOH 80 v/v % in water): 45.25 mg/mL
amount of SEQ ID NO. 1 able to be dissolved ([2]; EtOH 85 v/v % in water): 10.25 mg/mL
amount of SEQ ID NO. 1 able to be dissolved ([2]; EtOH 90 v/v % in water): 10.00 mg/mL
amount of SEQ ID NO. 1 able to be dissolved ([2]; EtOH 95 v/v % in water): 3.75 mg/mL
amount of SEQ ID NO. 1 able to be dissolved ([2]; EtOH 100 v/v %): 0.50 mg/mL
amount of SEQ ID NO. 1 able to be dissolved ([3]; IPA 0 v/v % in water): 1.3 mg/mL
amount of SEQ ID NO. 1 able to be dissolved ([3]; IPA 5 v/v % in water): 1.8 mg/mL
amount of SEQ ID NO. 1 able to be dissolved ([3]; IPA 10 v/v % in water): 2.3 mg/mL
amount of SEQ ID NO. 1 able to be dissolved ([3]; IPA 15 v/v % in water): 3.3 mg/mL
amount of SEQ ID NO. 1 able to be dissolved ([3]; IPA 20 v/v % in water): 4.3 mg/mL
amount of SEQ ID NO. 1 able to be dissolved ([3]; IPA 25 v/v % in water): 4.8 mg/mL
amount of SEQ ID NO. 1 able to be dissolved ([3]; IPA 30 v/v % in water): 6.0 mg/mL
amount of SEQ ID NO. 1 able to be dissolved ([3]; IPA 35 v/v % in water): 7.0 mg/mL
amount of SEQ ID NO. 1 able to be dissolved ([3]; IPA 40 v/v % in water): 13.8 mg/mL
amount of SEQ ID NO. 1 able to be dissolved ([3]; IPA 45 v/v % in water): 47.8 mg/mL
amount of SEQ ID NO. 1 able to be dissolved ([3]; IPA 50 v/v % in water): 120.3 mg/mL
amount of SEQ ID NO. 1 able to be dissolved ([3]; IPA 55 v/v % in water): 162.5 mg/mL
amount of SEQ ID NO. 1 able to be dissolved ([3]; IPA 60 v/v % in water): 138.5 mg/mL
amount of SEQ ID NO. 1 able to be dissolved ([3]; IPA 65 v/v % in water): 106.5 mg/mL
amount of SEQ ID NO. 1 able to be dissolved ([3]; IPA 70 v/v % in water): 65.7 mg/mL
amount of SEQ ID NO. 1 able to be dissolved ([3]; IPA 75 v/v % in water): 26.5 mg/mL
amount of SEQ ID NO. 1 able to be dissolved ([3]; IPA 80 v/v % in water): 19.0 mg/mL
amount of SEQ ID NO. 1 able to be dissolved ([3]; IPA 85 v/v % in water): 12.5 mg/mL
amount of SEQ ID NO. 1 able to be dissolved ([3]; IPA 90 v/v % in water): 9.0 mg/mL
amount of SEQ ID NO. 1 able to be dissolved ([3]; IPA 95 v/v % in water): 4.5 mg/mL
amount of SEQ ID NO. 1 able to be dissolved ([3]; IPA 100 v/v %): 0.3 mg/mL
effects on small bowel motility, fluid secretion and visceral pain [4]: promising effects on increasing small bowel motility, fluid secretion and decreasing visceral pain
